Measurements reported in patent publication US20240277899A1, “PRODUCTION METHOD OF MYOCARDIAL CELL LAYER, MYOCARDIAL CELL LAYER, AND USE THEREOF” (FUJIFILM Corporation, priority 2021, published 2024).
Like-named read-outs stand apart in the source and are kept apart here.

Test system: myocardial cell layer of myocardial cell C (iCell Cardiomyocytes^2, purity 80%)
Test: Drug screening: electrical signal of spontaneous beating of the myocardial cell layer measured by MEA (QT interval, beat rate, cardiotoxicity)
Settings: for myocardial beat rate on addition of the drug: MEA 5 minutes after adding drug, Day 17; for myocardial beat rate reaction, TW compared with Control: TW layer versus Control layer
Experimental: iCell (registered trademark) Cardiomyocytes^2 was thawed according to “iCell Cardiomyocytes^2 User's Guide” to prepare myocardial cells C (purity of the myocardial cells 100%). In addition, myocardium-derived fibroblasts (NHCF-V human cardiac fibroblasts, Lonza, CC-2904) were added to the myocardial cells C to prepare myocardial cells with a purity of 25%, 50%, and 75%, respectively. Each of the prepared myocardial cells was dispersed at 1×10^6 cells/cm^2 and scattered on the seeding surface of the cells of the culture container 3 prepared in Example 1 to form a myocardial cell layer. The cells were cultured in the same manner as in Example 2, a beating frequency was measured, and stability of the TW was evaluated.
Using the myocardial cell C (the myocardial cell with a purity of 80%, which was obtained in the same manner as in Example 4) and the above-described culture container 3 (biodegradable fiber material), a myocardial cell layer was formed in the same manner as in Example 4. […] In addition, the beating frequency was measured up to Day 14 (TW). As a control, the beating frequency was measured in the same manner for those (Control) in which the TW was stopped by exchanging the culture medium with a culture medium at 4° C. on Day 2.
A culture container 3 (biodegradable fiber material) was created in the same manner as in Example 10. In addition, a culture container 3 (PC) was created in the same manner as for the culture container 3 (biodegradable fiber material), using polycarbonate (PC) porous membrane (Thermo Fisher Scientific, Inc., Nunc™ Polycarbonate Cell Culture Cell Inserts in Multi-Well Plates 140644) as a scaffold material. A myocardial cell layer was formed in the same manner as in Example 2, using the myocardial cells B, the culture container 3 (biodegradable fiber material), and the culture container 3 (PC). […] After Day 14, the electrical signal of myocardial spontaneous beating was measured by MEA by stopping the TW by exchanging the culture medium with a culture medium at 4° C. Specifically, data of extracellular Field Potentials (FPs) was recorded on a multielectrode array (MEA) system (USB-ME64-System, Multi Channel Systems, Germany).
A culture container 3 (biodegradable fiber material) was created in the same manner as in Example 10. Using the myocardial cell C (the myocardial cell with a purity of 80%, which was obtained in the same manner as in Example 4) and the above-described culture container 3 (biodegradable fiber material), a myocardial cell layer was formed in the same manner as in Example 4. Those in which the generated TW was stably maintained up to Day 14 (TW), and those in which TW was stopped by exchanging the culture medium with a culture medium at 4° C. on Day 2 (Control), that is, a total of two kinds were produced.

| SMILES | myocardial beat rate on addition of the drug | myocardial beat rate reaction, TW compared with Control (MEA 5 minutes after drug) | QT interval extension, TW compared with Control (TW layer (TW maintained up to Day 14) versus Control layer (TW stopped on Day 2), MEA 5 minutes after drug) | QT interval as the concentration increased | QT interval extension, TW compared with Control |
| --- | --- | --- | --- | --- | --- |
| COc1ccc(CCN(C)CCCC(C#N)(c2ccc(OC)c(OC)c2)C(C)C)cc1OC (centres unmarked) [verapamil] | increased | more sensitive in reaction to verapamil as compared with Control |  |  |  |
| CC(C)NCC(O)c1ccc(O)c(O)c1 (centres unmarked) [isoproterenol] | increased | more sensitive in reaction to isoproterenol as compared with Control |  |  |  |
| Cc1cccc(C)c1OCC(C)N (centres unmarked) [mexiletine] |  |  | smaller than Control |  |  |
| CC(=O)Oc1ccccc1C(=O)O [aspirin] |  | almost the same |  | decreased | almost the same |
